In US7851474B2, “Dipiperazinyl ketones and related analogues” (Neurogen Corporation, priority 2005, dated 2010):

Target: T1, chimeric human H3 receptor (Homo sapiens, UniProt Q9Y5N1, E19D)
T1 construct: made in house; host or cells: Sf9 insect cells (baculovirus infection); P2 membrane preparation
Assay: Chimeric human H3 receptor GTP binding assay (agonist-stimulated GTP-gamma35S binding, Example 7)
Format: biochemical
Conditions: not given
In short: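 Sf9 membranes co-expressing the chimeric receptor and heterotrimeric G-protein subunits, 35 μg protein per tube, in pH 7.4 Tris buffer with 10 μM GDP. Test compounds at 10^−10 to 10^−6 M with 1 μM histamine, 60 min at room temperature. Filter-bound GTP-gamma^35S read by scintillation; IC50 from non-linear regression of dose-response curves.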

T1 sequence (Q9Y5N1 with tags, fused parts or gaps E19D): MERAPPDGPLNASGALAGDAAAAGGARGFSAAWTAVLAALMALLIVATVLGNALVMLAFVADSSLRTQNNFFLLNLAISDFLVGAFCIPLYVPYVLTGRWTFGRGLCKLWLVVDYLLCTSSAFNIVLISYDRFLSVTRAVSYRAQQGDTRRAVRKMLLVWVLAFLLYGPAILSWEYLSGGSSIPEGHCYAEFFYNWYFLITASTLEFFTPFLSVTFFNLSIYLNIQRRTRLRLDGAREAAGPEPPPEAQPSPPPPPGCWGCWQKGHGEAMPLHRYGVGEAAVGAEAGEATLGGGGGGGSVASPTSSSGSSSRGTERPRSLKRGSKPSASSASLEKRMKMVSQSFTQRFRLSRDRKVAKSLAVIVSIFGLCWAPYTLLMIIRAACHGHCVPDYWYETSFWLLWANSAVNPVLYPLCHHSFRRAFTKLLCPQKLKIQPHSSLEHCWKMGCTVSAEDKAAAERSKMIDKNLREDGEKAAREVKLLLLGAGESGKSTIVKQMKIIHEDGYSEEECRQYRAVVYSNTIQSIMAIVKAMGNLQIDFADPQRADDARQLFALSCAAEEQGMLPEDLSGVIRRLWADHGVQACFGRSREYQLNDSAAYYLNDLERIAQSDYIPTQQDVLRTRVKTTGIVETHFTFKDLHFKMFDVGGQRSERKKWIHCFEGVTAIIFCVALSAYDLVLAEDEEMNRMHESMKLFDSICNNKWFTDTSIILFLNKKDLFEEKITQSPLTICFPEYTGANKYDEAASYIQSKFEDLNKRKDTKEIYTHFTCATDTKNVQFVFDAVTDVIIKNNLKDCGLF

Structure (SMILES)	Ki [nM]
O=C(CN1CCN(c2cccc(C(F)(F)F)c2)CC1)N1CCN(C2CCC2)CC1 [Compound 590, 1-cyclobutyl-4-({4-[3-(trifluoromethyl)phenyl]piperazin-1-yl}acetyl)piperazine]	< 1000

Same assay, conditions: "*" in Ki of Table II; assay of Example 7; read-out: Ki

Ki [nM]	Structure (SMILES)
< 1000	COc1ccc(OC)c(CC(=O)N2CCN(CC(=O)N3CCN(C4CCC4)CC3)CC2)c1 [Compound 509, 1-cyclobutyl-4-({4-[(2,5-dimethoxyphenyl)acetyl]piperazin-1-yl}acetyl)piperazine]
< 1000	O=C(Cc1c(Cl)cccc1Cl)N1CCN(CC(=O)N2CCN(C3CCC3)CC2)CC1 [Compound 511, 1-cyclobutyl-4-({4-[(2,6-dichlorophenyl)acetyl]piperazin-1-yl}acetyl)piperazine]
< 1000	COc1ccccc1CC(=O)N1CCN(CC(=O)N2CCN(C3CCC3)CC2)CC1 [Compound 536, 1-cyclobutyl-4-({4-[(2-methoxyphenyl)acetyl]piperazin-1-yl}acetyl)piperazine]
< 1000	O=C(Cc1ccccc1Oc1ccccc1)N1CCN(CC(=O)N2CCN(C3CCC3)CC2)CC1 [Compound 541, 1-cyclobutyl-4-({4-[(2-phenoxyphenyl)acetyl]piperazin-1-yl}acetyl)piperazine]
< 1000	Cc1cccc(OC(C)C(=O)N2CCN(CC(=O)N3CCN(C4CCC4)CC3)CC2)c1C (stereo not shown) [Compound 571, 1-cyclobutyl-4-({4-[2-(2,3-dimethylphenoxy)propanoyl]piperazin-1-yl}acetyl)piperazine]
< 1000	Cc1ccccc1OC(C)C(=O)N1CCN(CC(=O)N2CCN(C3CCC3)CC2)CC1 (stereo not shown) [Compound 573, 1-cyclobutyl-4-({4-[2-(2-methylphenoxy)propanoyl]piperazin-1-yl}acetyl)piperazine]

Same assay, conditions: Table II, "*" in Ki; assay of Example 7; read-out: Ki

Ki [nM]	Structure (SMILES)
< 1000	O=C(CN1CCN(c2ccc(-c3ccccc3C(F)(F)F)cc2)CC1)N1CCN(C2CCC2)CC1 [Compound 580, 1-cyclobutyl-4-({4-[2′-(trifluoromethyl)biphenyl-4-yl]piperazin-1-yl}acetyl)piperazine]
< 1000	CS(=O)(=O)c1ccc(N2CCN(CC(=O)N3CCN(C4CCC4)CC3)CC2)c(F)c1 [Compound 581, 1-cyclobutyl-4-({4-[2-fluoro-4-(methylsulfonyl)phenyl]piperazin-1-yl}acetyl)piperazine]
< 1000	O=C(CN1CCN(c2cccc(C(=O)N3CC=CCC3)c2)CC1)N1CCN(C2CCC2)CC1 [Compound 583]
< 1000	CSc1cccc(-c2ccc(N3CCN(CC(=O)N4CCN(C5CCC5)CC4)CC3)cc2)c1 [Compound 584, 1-cyclobutyl-4-({4-[3′-(methylthio)biphenyl-4-yl]piperazin-1-yl}acetyl)piperazine]
< 1000	O=C(CN1CCN(c2cccc(C(=O)N3CCCCC3)c2)CC1)N1CCN(C2CCC2)CC1 [Compound 585, 1-cyclobutyl-4-({4-[3-(piperidin-1-ylcarbonyl)phenyl]piperazin-1-yl}acetyl)piperazine]
< 1000	O=C(CN1CCN(c2cccc(C(=O)N3CCCC3)c2)CC1)N1CCN(C2CCC2)CC1 [Compound 586, 1-cyclobutyl-4-({4-[3-(pyrrolidin-1-ylcarbonyl)phenyl]piperazin-1-yl}acetyl)piperazine]
< 1000	O=C(CN1CCN(c2ccc(-c3cccc(OC(F)(F)F)c3)cc2)CC1)N1CCN(C2CCC2)CC1 [Compound 587, 1-cyclobutyl-4-({4-[3′-(trifluoromethoxy)biphenyl-4-yl]piperazin-1-yl}acetyl)piperazine]
< 1000	O=C(CN1CCN(c2ccc(-c3cccc(C(F)(F)F)c3)cc2)CC1)N1CCN(C2CCC2)CC1 [Compound 589, 1-cyclobutyl-4-({4-[3′-(trifluoromethyl)biphenyl-4-yl]piperazin-1-yl}acetyl)piperazine]
< 1000	O=C(CN1CCN(c2ccc(-c3ccc4c(c3)OCCO4)cc2)CC1)N1CCN(C2CCC2)CC1 [Compound 592, 1-cyclobutyl-4-({4-[4-(2,3-dihydro-1,4-benzodioxin-6-yl)phenyl]piperazin-1-yl}acetyl)piperazine]
< 1000	O=C(CN1CCN(c2ccc(C(=O)N3CC=CCC3)cc2)CC1)N1CCN(C2CCC2)CC1 [Compound 593, 1-cyclobutyl-4-({4-[4-(3,6-dihydropyridin-1(2H)-ylcarbonyl)phenyl]piperazin-1-yl}acetyl)piperazine]
< 1000	Cc1noc(-c2ccc(N3CCN(CC(=O)N4CCN(C5CCC5)CC4)CC3)cc2)n1 [Compound 594, 1-cyclobutyl-4-({4-[4-(3-methyl-1,2,4-oxadiazol-5-yl)phenyl]piperazin-1-yl}acetyl)piperazine]
< 1000	Cc1nc(-c2ccc(N3CCN(CC(=O)N4CCN(C5CCC5)CC4)CC3)cc2)no1 [Compound 595, 1-cyclobutyl-4-({4-[4-(5-methyl-1,2,4-oxadiazol-3-yl)phenyl]piperazin-1-yl}acetyl)piperazine]
< 1000	CCS(=O)(=O)c1ccc(N2CCN(CC(=O)N3CCN(C4CCC4)CC3)CC2)cc1 [Compound 597, 1-cyclobutyl-4-({4-[4-(ethylsulfonyl)phenyl]piperazin-1-yl}acetyl)piperazine]
< 1000	CS(=O)(=O)c1ccc(N2CCN(CC(=O)N3CCN(C4CCC4)CC3)CC2)cc1 [Compound 599, 1-cyclobutyl-4-({4-[4-(methylsulfonyl)phenyl]piperazin-1-yl}acetyl)piperazine]
< 1000	O=C(CN1CCN(c2ccc(C(=O)N3CCCCC3)cc2)CC1)N1CCN(C2CCC2)CC1 [Compound 601, 1-cyclobutyl-4-({40[4-(piperidin-1-ylcarbonyl)phenyl]piperazin-1-yl}acetyl)piperazine]
< 1000	CCCS(=O)(=O)c1ccc(N2CCN(CC(=O)N3CCN(C4CCC4)CC3)CC2)cc1 [Compound 602, 1-cyclobutyl-4-({4-[4-(propylsulfonyl)phenyl]piperazin-1-yl}acetyl)piperazine]
< 1000	O=C(CN1CCN(c2ccc(C(=O)N3CCCC3)cc2)CC1)N1CCN(C2CCC2)CC1 [Compound 603, 1-cyclobutyl-4-({4-[4-(pyrrolidin-1-ylcarbonyl)phenyl]piperazin-1-yl}acetyl)piperazine]
< 1000	O=C(CN1CCN(c2ccc(-c3ccc(OC(F)(F)F)cc3)cc2)CC1)N1CCN(C2CCC2)CC1 [Compound 604, 1-cyclobutyl-4-({4-[4′-(trifluoromethoxy)biphenyl-4-yl]piperazin-1-yl}acetyl)piperazine]
< 1000	O=C(CN1CCN(c2ccc(-c3ccc(C(F)(F)F)cc3)cc2)CC1)N1CCN(C2CCC2)CC1 [Compound 606, 1-cyclobutyl-4-({4-[4′-(trifluoromethyl)biphenyl-4-yl]piperazin-1-yl}acetyl)piperazine]
< 1000	O=C(CN1CCN(c2ccc(F)c(C(F)(F)F)c2)CC1)N1CCN(C2CCC2)CC1 [Compound 607, 1-cyclobutyl-4-({4-[4-fluoro-3-(trifluoromethyl)phenyl]piperazin-1-yl}acetyl)piperazine]
< 1000	O=C(CN1CCN(c2ccc(C(=O)N3CC=CCC3)cn2)CC1)N1CCN(C2CCC2)CC1 [Compound 609, 1-cyclobutyl-4-({4-[5-(3,6-dihydropyridin-1(2H)-ylcarbonyl)pyridin-2-yl]piperazin-1-yl}acetyl)piperazine]
< 1000	O=C(CN1CCN(c2ccc(C(=O)N3CCCCC3)cn2)CC1)N1CCN(C2CCC2)CC1 [Compound 610, 1-cyclobutyl-4-({4-[5-(piperidin-1-ylcarbonyl)pyridin-1-yl]piperazin-1-yl}acetyl)piperazine]
< 1000	O=C(CN1CCN(c2ccc(C(=O)N3CCCC3)cn2)CC1)N1CCN(C2CCC2)CC1 [Compound 611, 1-cyclobutyl-4-({4-[5-(pyrrolidin-1-ylcarbonyl)pyridin-2-yl]piperazin-1-yl}acetyl)piperazine]
< 1000	CCC1CCCCN1C(=O)c1cccc(N2CCN(CC(=O)N3CCN(C4CCC4)CC3)CC2)c1 (stereo not shown) [Compound 638, 1-cyclobutyl-4-[(4-{3-[(2-ethylpiperidin-1-yl)carbonyl]phenyl}piperazin-1-yl)acetyl]piperazine]
< 1000	CC1CCCCN1C(=O)c1cccc(N2CCN(CC(=O)N3CCN(C4CCC4)CC3)CC2)c1 (stereo not shown) [Compound 639, 1-cyclobutyl-4-[(4-{3-[(2-methylpiperidin-1-yl)carbonyl]phenyl}piperazin-1-yl)acetyl]piperazine]
< 1000	CC1CCCN1C(=O)c1cccc(N2CCN(CC(=O)N3CCN(C4CCC4)CC3)CC2)c1 (stereo not shown) [Compound 640, 1-cyclobutyl-4-[(4-{3-[(2-methylpyrrolidin-1-yl)carbonyl]phenyl}piperazin-1-yl)acetyl]piperazine]
< 1000	CC1CC(C)CN(C(=O)c2cccc(N3CCN(CC(=O)N4CCN(C5CCC5)CC4)CC3)c2)C1 (stereo not shown) [Compound 641, 1-cyclobutyl-4-[(4-{3-[(3,5-dimethylpiperidin-1-yl)carbonyl]phenyl}piperazin-1-yl)acetyl]piperzaine]
< 1000	CC1CCN(C(=O)c2cccc(N3CCN(CC(=O)N4CCN(C5CCC5)CC4)CC3)c2)CC1 [Compound 642, 1-cyclobutyl-4-[(4-{3-[(4-methylpiperidin-1-yl)carbonyl]phenyl}piperazin-1-yl)acetyl]piperazine]
< 1000	CCC1CCCCN1C(=O)c1ccc(N2CCN(CC(=O)N3CCN(C4CCC4)CC3)CC2)cc1 (stereo not shown) [Compound 643, 1-cyclobutyl-4-[(4-{4-[(2-ethylpiperidin-1-yl)carbonyl]phenyl}piperazin-1-yl)acetyl]piperazine]
< 1000	CC1CCCCN1C(=O)c1ccc(N2CCN(CC(=O)N3CCN(C4CCC4)CC3)CC2)cc1 (stereo not shown) [Compound 644, 1-cyclobutyl-4-[(4-{4-[(2-methylpiperidin-1-yl)carbonyl]phenyl}piperazin-1-yl)acetyl]piperazine]
